Test results reported in ChEMBL document CHEMBL1201862, “PubChem BioAssay data set” (2004).
Activity calls are given as the source filed them.

Tests used:
[1] = molecular target: T1, Protein RecA (Mycobacterium tuberculosis, UniProt P9WHJ3); assay: Fluorescence Cell-Free Homogeneous Dose Retest to Identify Inhibitors of RecA-Intein Splicing Activity. [Related pubchem assays (depositor defined):AID2097, AID2223, AID489010, AID492950]; type: functional
T1 sequence (P9WHJ3 whole entry): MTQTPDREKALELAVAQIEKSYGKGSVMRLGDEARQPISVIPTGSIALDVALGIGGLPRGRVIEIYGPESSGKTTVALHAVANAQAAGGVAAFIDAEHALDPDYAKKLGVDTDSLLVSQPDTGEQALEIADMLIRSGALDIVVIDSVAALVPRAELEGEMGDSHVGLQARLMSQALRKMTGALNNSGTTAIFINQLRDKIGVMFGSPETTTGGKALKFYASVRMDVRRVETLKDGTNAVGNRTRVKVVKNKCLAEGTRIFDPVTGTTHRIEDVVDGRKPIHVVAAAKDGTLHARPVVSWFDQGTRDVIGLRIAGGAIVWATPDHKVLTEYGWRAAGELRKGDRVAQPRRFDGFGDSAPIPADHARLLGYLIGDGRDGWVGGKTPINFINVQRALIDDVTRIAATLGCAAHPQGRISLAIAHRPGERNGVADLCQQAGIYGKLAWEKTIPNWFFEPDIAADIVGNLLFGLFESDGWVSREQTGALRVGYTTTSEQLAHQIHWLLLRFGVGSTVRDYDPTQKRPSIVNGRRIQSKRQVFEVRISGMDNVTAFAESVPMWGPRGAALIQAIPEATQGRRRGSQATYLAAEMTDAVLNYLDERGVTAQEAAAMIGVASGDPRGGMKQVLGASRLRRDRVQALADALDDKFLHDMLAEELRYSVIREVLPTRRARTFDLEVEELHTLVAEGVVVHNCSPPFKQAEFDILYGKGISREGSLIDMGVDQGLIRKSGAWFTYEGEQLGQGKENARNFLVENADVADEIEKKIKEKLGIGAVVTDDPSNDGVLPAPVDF

[2] = Shn3 3'UTR reporter inhibitors, dose response, cell-based, Clone20 osteoblasts, firefly luciferase, cherry-picked (AID 624132); type: functional;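 note: firefly luciferase luminescence from reporter carrying the Shn3 3'UTR in osteoblasts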
[3] = Luminescence Cell-Based Dose Retest to Confirm Inhibitors of Cancer Stem Cells. [Related pubchem assays (depositor defined):AID2717, AID2721]; type: functional; details: Homo sapiens
[4] = HepG2 cell cytotoxicity, dose response, cytotoxicity control for Shn3 inhibitor project, CellTiter-Glo, cherry-picked (AID 624134); type: functional, cell-based
[5] = system: CHO; assay: cytotoxicity in TLR9-MyD88 CHO cells, dose response, cytotoxicity control for TLR9-MyD88 binding inhibitor project, cell-based, luminescence (AID 588339); type: functional, hamster; details: Cricetulus griseus;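 note: CHO cells stably coexpressing TLR9 and MyD88 fusions from primary screen; compound exposure lasted 48 hours before viability readout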
[6] = molecular target: T2, Replicative DNA helicase DnaB (Mycobacterium tuberculosis, UniProt P9WMR3); assay: DnaB intein splicing inhibitors, dose response, biochemical, cell-free fluorescence (AID 449749); type: functional
T2 sequence (P9WMR3 whole entry): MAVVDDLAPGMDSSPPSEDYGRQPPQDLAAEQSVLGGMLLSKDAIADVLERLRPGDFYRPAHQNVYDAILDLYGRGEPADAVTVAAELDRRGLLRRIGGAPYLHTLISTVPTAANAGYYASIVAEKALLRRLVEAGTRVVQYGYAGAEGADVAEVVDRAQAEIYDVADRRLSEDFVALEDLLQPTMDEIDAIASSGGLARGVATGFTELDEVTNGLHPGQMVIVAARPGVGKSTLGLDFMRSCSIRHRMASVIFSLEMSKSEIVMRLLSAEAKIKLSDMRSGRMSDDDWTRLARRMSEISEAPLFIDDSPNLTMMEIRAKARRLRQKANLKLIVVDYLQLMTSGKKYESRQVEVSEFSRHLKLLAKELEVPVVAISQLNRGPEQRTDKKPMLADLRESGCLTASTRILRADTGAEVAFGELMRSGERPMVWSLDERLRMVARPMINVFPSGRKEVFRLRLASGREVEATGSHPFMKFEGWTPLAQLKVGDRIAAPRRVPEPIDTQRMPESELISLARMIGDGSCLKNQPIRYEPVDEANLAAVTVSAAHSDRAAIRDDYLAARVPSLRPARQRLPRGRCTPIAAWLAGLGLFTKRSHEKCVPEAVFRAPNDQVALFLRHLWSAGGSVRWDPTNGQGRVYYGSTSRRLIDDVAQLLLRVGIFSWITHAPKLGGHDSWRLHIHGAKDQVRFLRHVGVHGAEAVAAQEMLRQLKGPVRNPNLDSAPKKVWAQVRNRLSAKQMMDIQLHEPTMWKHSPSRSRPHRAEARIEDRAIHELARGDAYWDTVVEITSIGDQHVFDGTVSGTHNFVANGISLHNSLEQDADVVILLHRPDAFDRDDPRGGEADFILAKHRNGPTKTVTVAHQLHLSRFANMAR

[7] = system: INS1; assay: beta cell apoptosis inhibitors, cytokine rescue, dose response, luminescence, retest (AID 449756); type: functional, cell-based; details: Rattus norvegicus;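 note: cell death triggered by IL-1 beta plus TNF-alpha plus IFN-gamma mixture; protective hits raise ATP signal compared with cytokine alone wells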
[8] = control 3'UTR Renilla luciferase suppression, dose response, counter-screen for Shn3 inhibitor project, cell-based, Clone20-Shn3RL, cherry-picked (AID 624133); type: functional
[9] = molecular target: NACHT, LRR and PYD domains-containing protein 3 (Homo sapiens, UniProt Q96P20); assay: NALP3 inhibitors in yeast, dose response, luminescent (AID 488799); type: functional
Sequence of NACHT, LRR and PYD domains-containing protein 3 (Q96P20 whole entry, the tested form may be a part): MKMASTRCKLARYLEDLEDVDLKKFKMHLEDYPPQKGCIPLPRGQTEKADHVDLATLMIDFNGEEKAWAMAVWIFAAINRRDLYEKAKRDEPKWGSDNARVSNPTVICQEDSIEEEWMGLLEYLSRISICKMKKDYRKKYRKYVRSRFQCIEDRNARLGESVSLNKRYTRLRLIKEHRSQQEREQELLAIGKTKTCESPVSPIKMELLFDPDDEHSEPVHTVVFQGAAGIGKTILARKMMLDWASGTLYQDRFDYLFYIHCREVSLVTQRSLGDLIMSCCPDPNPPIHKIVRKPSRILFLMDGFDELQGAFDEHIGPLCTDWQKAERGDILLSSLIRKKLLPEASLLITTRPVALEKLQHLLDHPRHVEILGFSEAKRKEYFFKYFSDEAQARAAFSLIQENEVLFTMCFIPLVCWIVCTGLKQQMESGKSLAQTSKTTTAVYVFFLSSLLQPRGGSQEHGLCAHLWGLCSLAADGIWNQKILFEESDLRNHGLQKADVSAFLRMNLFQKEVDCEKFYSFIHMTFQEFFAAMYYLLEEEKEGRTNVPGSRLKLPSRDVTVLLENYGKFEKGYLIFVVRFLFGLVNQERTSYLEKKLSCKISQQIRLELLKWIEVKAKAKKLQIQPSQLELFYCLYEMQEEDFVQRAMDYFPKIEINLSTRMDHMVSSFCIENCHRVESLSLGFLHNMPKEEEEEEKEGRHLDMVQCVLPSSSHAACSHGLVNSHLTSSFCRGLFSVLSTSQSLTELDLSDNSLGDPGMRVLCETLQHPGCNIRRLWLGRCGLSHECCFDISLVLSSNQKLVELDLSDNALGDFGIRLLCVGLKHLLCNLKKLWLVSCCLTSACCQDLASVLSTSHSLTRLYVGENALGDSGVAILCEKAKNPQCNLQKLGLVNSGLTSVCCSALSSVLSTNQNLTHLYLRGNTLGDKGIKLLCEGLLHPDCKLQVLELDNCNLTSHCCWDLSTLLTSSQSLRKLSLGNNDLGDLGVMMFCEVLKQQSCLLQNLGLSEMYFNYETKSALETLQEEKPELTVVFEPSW

[10] = molecular target: ATP-binding cassette sub-family B member 6 (Homo sapiens, UniProt Q9NP58); assay: ABCB6 transporter inhibitors, dose response, K562-ABCB6 cells, flow cytometry, cherry pick 1 (AID 623955); type: functional; details: read-out: EC50_MICROM
Sequence of ATP-binding cassette sub-family B member 6 (Q9NP58 whole entry): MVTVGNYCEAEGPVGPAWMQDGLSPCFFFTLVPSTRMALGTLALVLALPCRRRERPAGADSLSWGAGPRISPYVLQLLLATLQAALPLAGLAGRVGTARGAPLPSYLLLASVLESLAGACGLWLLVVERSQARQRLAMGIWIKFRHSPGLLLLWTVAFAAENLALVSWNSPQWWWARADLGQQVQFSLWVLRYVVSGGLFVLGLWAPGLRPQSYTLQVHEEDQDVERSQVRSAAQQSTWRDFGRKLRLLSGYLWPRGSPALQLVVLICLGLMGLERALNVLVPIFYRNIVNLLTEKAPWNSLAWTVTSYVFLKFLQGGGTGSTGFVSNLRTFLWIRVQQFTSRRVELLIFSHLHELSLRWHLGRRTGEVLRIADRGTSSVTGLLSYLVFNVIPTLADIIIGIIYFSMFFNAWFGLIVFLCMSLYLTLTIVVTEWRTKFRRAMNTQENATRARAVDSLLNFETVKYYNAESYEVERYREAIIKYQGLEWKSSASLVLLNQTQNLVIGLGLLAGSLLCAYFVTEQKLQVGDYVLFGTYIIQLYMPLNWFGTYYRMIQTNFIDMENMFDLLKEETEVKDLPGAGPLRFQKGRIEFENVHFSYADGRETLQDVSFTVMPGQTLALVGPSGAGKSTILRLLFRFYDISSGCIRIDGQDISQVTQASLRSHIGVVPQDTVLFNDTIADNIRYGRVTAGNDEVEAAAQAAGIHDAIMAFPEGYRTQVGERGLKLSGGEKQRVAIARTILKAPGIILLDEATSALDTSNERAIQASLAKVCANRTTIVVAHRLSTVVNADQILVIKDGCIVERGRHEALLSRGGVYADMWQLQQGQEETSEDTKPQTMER

[11] = molecular target: Heat shock protein HSP 90-alpha (Homo sapiens, UniProt P07900); type: functional, organism-based
[12] = molecular target: Beta Lactamase (Pseudomonas aeruginosa, UniProt Q932Y6); assay: beta-lactamase reporter inhibitor potency, dose response, artefact control for TLR9-MyD88 binding inhibitor project, BLA reporter cells, FRET fluorescence (AID 588341); type: cell-based;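 note: cell based assay in CHO-K1 cells stably expressing beta-lactamase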
Sequence of Beta Lactamase (Q932Y6 whole entry): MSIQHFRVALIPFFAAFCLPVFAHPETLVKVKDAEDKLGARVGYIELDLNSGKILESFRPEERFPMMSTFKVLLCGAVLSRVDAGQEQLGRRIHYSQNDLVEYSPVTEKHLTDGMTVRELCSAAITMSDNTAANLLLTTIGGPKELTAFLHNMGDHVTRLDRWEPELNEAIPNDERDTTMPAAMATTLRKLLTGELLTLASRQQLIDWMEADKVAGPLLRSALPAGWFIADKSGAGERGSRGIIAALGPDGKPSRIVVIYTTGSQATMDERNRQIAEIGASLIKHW

[13] = system: CHO-K1; assay: (§1) Counterscreen for antagonists of the orexin 1 receptor (OX1R; HCRTR1): Homogeneous time resolved fluorescence (HTRF)-based cell-based dose response assay to identify antagonists of the parental CHO-K1 cell line. [Related pubchem assays (depositor defined):AID434989, AID435008, AID463079, AID485270, AID492963, AID492964, AID492965, AID493232, AID504699, AID504701]; type: functional; details: Cricetulus griseus
[14] = molecular target: T3, Orexin receptor type 2 (Homo sapiens, UniProt O43614); assay: Counterscreen assay for antagonists of the orexin 1 receptor (OX1R; HCRTR1): Homogeneous Time Resolved Fluorescence (HTRF)-based cell-based dose response assay for antagonists of the orexin 2 receptor (OX2R; HCRTR2), run by assay provider.; type: functional
T3 sequence (O43614 whole entry): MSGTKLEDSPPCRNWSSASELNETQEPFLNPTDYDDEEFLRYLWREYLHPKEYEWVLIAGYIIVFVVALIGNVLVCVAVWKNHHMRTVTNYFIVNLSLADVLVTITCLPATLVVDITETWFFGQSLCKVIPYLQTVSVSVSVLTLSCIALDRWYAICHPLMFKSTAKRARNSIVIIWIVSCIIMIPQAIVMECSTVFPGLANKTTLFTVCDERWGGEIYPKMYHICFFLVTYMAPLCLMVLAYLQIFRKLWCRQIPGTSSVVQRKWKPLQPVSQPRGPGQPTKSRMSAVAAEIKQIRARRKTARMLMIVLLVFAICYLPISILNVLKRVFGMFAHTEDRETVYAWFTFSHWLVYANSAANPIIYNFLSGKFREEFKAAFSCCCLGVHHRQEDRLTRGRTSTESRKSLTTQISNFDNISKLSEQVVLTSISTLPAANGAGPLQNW

[15] = molecular target: T3, Orexin receptor type 2; assay: Counterscreen assay for antagonists of the orexin 1 receptor (OX1R; HCRTR1): Fluorescence-based cell-based dose response assay for antagonists of the orexin 2 receptor (OX2R; HCRTR2), run by assay provider.; type: functional
[16] = as §1, with “Fluorescence-based” for “Homogeneous time resolved fluorescence (HTRF)-based”, “cell-based high throughput” for “cell-based”, “CHO” for “CHO-K1”; type: functional
[17] = Luminescence Cell-Based Dose Confirmation to Identify Activators of 5'UTR Stem-Loop Driven Alpha-Synuclein mRNA Translation in H4 Neuroglioblastoma Cells. [Related pubchem assays: 1829 (Project Summary), 1814 (Primary HTS)]; type: functional
[18] = molecular target: T4, Orexin/Hypocretin receptor type 1 (Homo sapiens, UniProt O43613); assay: Homogeneous Time Resolved Fluorescence (HTRF)-based cell-based high throughput dose response assay for antagonists of the orexin 1 receptor (OX1R; HCRTR1). [Related pubchem assays (depositor defined):AID434989, AID435008, AID463079, AID485270, AID492963, AID492964, AID492965, AID493232, AID504717, AID504718]; type: functional
T4 sequence (O43613 whole entry): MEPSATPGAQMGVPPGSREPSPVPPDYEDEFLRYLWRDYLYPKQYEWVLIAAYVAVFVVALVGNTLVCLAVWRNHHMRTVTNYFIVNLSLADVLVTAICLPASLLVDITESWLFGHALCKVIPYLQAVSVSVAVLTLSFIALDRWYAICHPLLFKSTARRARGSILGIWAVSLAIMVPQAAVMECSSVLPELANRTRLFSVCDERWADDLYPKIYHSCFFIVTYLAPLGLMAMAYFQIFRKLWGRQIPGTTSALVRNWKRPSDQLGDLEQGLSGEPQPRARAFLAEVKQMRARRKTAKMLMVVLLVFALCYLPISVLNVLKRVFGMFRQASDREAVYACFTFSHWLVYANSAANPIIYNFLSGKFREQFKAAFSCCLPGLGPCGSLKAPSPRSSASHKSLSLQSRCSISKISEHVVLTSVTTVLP

[19] = Luminescence Cell-Based Dose Response to Identify Activators of Luciferase Translation or Activity in H4-C Neuroglioblastoma Cells. [Related pubchem assays: 1829 (Project Summary), 1814 (Primary HTS)]; type: functional
[20] = system: H4; assay: Luminescence Cell-Based Dose Response HTS to Identify Activators of 5'UTR Stem-Loop Driven Prion Protein mRNA Translation in H4 Neuroglioblastoma Cells. [Related pubchem assays: 1829 (Project Summary), 1814 (Primary HTS)]; type: functional; details: Homo sapiens
[21] = Luminescence Cell-Based Dose Response HTS to Identify Activators of Luciferase Translation or Activity in H4 […] Cells. [Related pubchem assays: 1829 (Project Summary), 1814 (Primary HTS)]; type: functional
[22] = Luminescence Cell-Based Dose Response to Identify Activators of 5'UTR Stem-Loop Driven Prion Protein mRNA Translation in H4-C Neuroglioblastoma Cells. [Related pubchem assays: 1829 (Project Summary), 1814 (Primary HTS)]; type: functional
[23] = molecular target: T4, Orexin/Hypocretin receptor type 1; assay: Fluorescence-based cell-based high throughput dose response assay for antagonists of the orexin 1 receptor (OX1R; HCRTR1). [Related pubchem assays (depositor defined):AID434989, AID435008, AID463079, AID485270, AID492963, AID492964, AID492965, AID493232, AID504717, AID504718]; type: functional

Cc1ccc(NC(=O)c2nc(S(=O)(=O)Cc3ccccc3)ncc2Cl)cc1
EC50 [1]: 0.88 µM (active) | AC50 [2]: 3.42 µM (active) | AC50 [3]: 2.57 µM (active) | AC50 [4]: 24.6 µM (active) | IC50 [5]: 3.31 µM (active) | AC50 [6]: 23 µM (active) | AC50 [7]: 9.27 µM (active) | AC50 [8]: 6.01 µM (active) | IC50 [9]: 3.58 µM (active) | EC50 [10]: 34.7 µM (active) | AC50 [11]: 3.21 µM (active) | IC50 [12]: 8.3 µM (active)

O=C(Nc1ccc2sc3ccccc3c(=O)c2c1)c1ccccc1Cl
IC50 [13]: > 66.2 µM (inactive) | IC50 [14]: 1.54 µM (active) | IC50 [15]: > 88.8 µM (inactive) | IC50 [16]: > 49.8 µM (inactive) | EC50 [17]: 0.232 µM (active) | IC50 [18]: 3.26 µM (active) | EC50 [19]: 0.454 µM (active) | EC50 [20]: 0.199 µM (active) | EC50 [21]: 0.297 µM (active) | EC50 [22]: 0.3 µM (active) | IC50 [23]: > 5.53 µM (active)
